Data set [1] in a line: Half-life of model acyl hydrazones in a simulated lysosomal environment (pH 4.5). It counts as physicochemical. Particulars: read-out: Acidic (pH 4.5) Half life. From the text: Towards the goal developing enhanced control of ADC linker stability, several model cyclic acyl hydrazones whose lability is modulated either by steric or stereoelectronic effects have been prepared. Exemplary acyl hydrazones containing a substituted phenyl group adjacent to the imine carbon have been synthesized. Starting with the acyl hydrazone structure (D) present in Mylotarg, the adjacent steric and electronic environments in model linker compounds were varied and their half-life tested in a simulated lysosomal environment (pH 4.5), as shown in Table 1. […] On the other hand, incorporation of a methoxy group in the same position (as in G) rendered the cyclic hydrazone very labile with a half-life of only 2 min.

Data set [2] has as its system glioblastoma EGFR^+ U87 cell lines (U87MG engineered to overexpress wt EGFR). As to the kind of experiment: Cell proliferation assay (SRB), EGFR^+ U87 cells. It counts as cell-based. The settings on record: Homo sapiens, U-87 MG, 72 h. Here is the method: (§1) The parental U87MG glioblastoma human tumor cell line (ATCC) and the corresponding cell line engineered to overexpress wt EGFR (EGFR^+ U87) (˜2M receptors per cell) were grown in DMEM medium containing 10% fetal bovine serum and 2 mM L-glutamine. Cells were inoculated into 96 well microtiter plates in 100 μL at a plating density of 4000 cells/well After cell inoculation, the microtiter plates were incubated at 37° C., 5% CO2, 95% air and 100% relative humidity. After 24 h incubation, experimental drugs were diluted to 10× the desired final maximum test concentration with complete medium and additional 10-fold or ½ log serial dilutions were made to provide a total of 6 drug concentrations plus control. Aliquots of 10 μl of these different drug dilutions were added to the appropriate microtiter wells already containing 100 μl of medium, resulting in the required final drug concentrations.
(§2) Following drug addition, the plates were incubated for an additional 72 h at 37° C., 5% CO2, 95% air, and 100% relative humidity. […] Bound stain was subsequently solubilized with 10 mM trizma base, and the absorbance was read on an automated plate reader at a wavelength of 515 nm. The growth was calculated at each of the drug concentrations levels relative to untreated cells (media only control).
(§3) Percentage growth inhibition was calculated as: [(Ti)/(C)]×100 […]

Data set [3] concerns parental U87MG glioblastoma human tumor cell line. Nature of the data set: Cell proliferation assay (SRB), U87 parental cells. In kind it is cell-based. Particulars: U-87 MG, 72 h. As to the method:
as §1, §2, §3

Data set [4] is described as follows: Stability of acyl hydrazones on incubation in human plasma. It counts as in vitro ADME. Particulars: 6 days incubation in human plasma; remaining parent acyl hydrazone. Here is the method: In addition, for an ADC to have a better therapeutic window, ideally it should be stable in plasma and having the payload released only upon entry to the target cells. Thus targeted cytotoxicity would be mostly confined to the diseased cells of interest. Starting with the acyl hydrazone structure (D) present in Mylotarg, the adjacent steric and electronic environments were varied in model linker compounds and their stability was tested in plasma.

Data set [5] has as its system SKOV3 ovarian cancer cell line. Nature of the data set: Cytotoxicity against SKOV3 (CellTiter-Glo ATP viability). It counts as cell-based. Particulars: ATP content. (ATP-based viability assays read luminescence as a measure of living cells.)
Method: SKOV3 ovarian cells are incubated with the effectors for a period corresponding to 2 to 3 times their estimated doubling time and the amount of viable cells is determine by measuring ATP content in the wells. […] All ADCs are diluted in DPBS to 6× the highest concentration tested, followed by 10 3-fold serial dilutions in DPBS for a total of 11 concentration points. Each point is added to triplicate wells. DPBS is added in wells to measure the maximum growth. Cells are diluted at their appropriate seeding density (ranging from 150 to 1000 cells per well) in complete media supplemented with glutamine 2 mM, serum and antibiotic cocktail. They are distributed in white, opaque bottom, tissue-culture treated 384 well plates and incubated for 24 hrs at 37° C.+5% CO2. […] Total ATP is measured using CellTiter-Glo reagent from Promega as recommended by the supplier. […] Signal output is measured on a luminescence plate reader (envision, Perkin Elmer) set at an integration time of 0.1 sec. […]
Each concentration point (S) is normalized to the negative control wells (NC) and expressed as % survival (NC−S/NC×100). Potency (IC50) and efficacy are calculated from a non-linear curve fit of the points versus log of the concentrations without constrain on the slope. Refined data are analysed using Prism software.

With `C/C(=N\NC(=O)CC(C)(C)S)c1ccc(OCCCC(=O)O)cc1` [Compound Ia, 4-(4-(1-(2-(3-Mercaptomethylbutanoyl) hydrazineylidene)ethyl)phenoxy) butanoic acid], the half-life in data set [1] was 15 min.
On to `CC(C)(S)CC(=O)NN=C1CCCc2cc(OCCCC(=O)O)cc(O)c21` [Compound Ib, 4-((4-Hydroxy-5-(2-(3-mercapto-3-methylbutanoyl)hydrazono)-5,6,7,8-tetrahydronaphthalen-2-yl)oxy)butanoic acid], for which, in data set [1], the half-life was 234 min.
`CC(C)(S)CC(=O)N/N=C1\CCCc2cc(OCCCC(=O)O)ccc21` [Compound Ie, 4-((5-(2-(3-Mercapto-3-methylbutanoyl)hydrazineylidene)-5,6,7,8-tetrahydronaphthalen-2-yl)oxy)butanoic acid]: the half-life in data set [1] was 31 min.
Consider `COc1cc2cc(c1Cl)N(C)C(=O)C[C@H](OC(=O)[C@H](C)N(C)C(=O)CCS)[C@]1(C)O[C@H]1[C@H](C)[C@@H]1C[C@@](O)(NC(=O)O1)[C@H](OC)/C=C/C=C(\C)C2` [DM1], for which the 50% inhibitory concentration (IC50) amounted to 10.3 nM in data set [2] and 12.3 nM in data set [3].
With `COc1ccc(/C(C)=N/NC(C)=O)cc1` [D], in data set [4], the “% remaining after 6 days” value is listed as 37%. The half-life in data set [1] is 15 min.
For `COc1cc(O)cc2c1/C(=N/NC(C)=O)CCC2` [G], the half-life in data set [1] was 2 min.
Consider `CC(=O)N/N=C1\CCCc2ccc(F)cc21` [K], for which the half-life in data set [1] was 88 min.
Take `CC(=O)N/N=C1\CCc2cccc(O)c21` [L]: the “% remaining after 6 days” value in data set [4] is given as 50%. Further, in data set [1], the half-life is 185 min.
Synagis-SMCC-DM1: negative control ADC had an IC50 in data set [5] of 9.64 nM.

The term half-life denotes the time in which the quantity being followed falls by half. What is called IC50 is the concentration that gives 50% inhibition.

The record behind these values is patent US11576981B2, “Acyl hydrazone linkers, methods and uses thereof” (Ontario Institute for Cancer Research (OICR), priority 2017, dated 2023).
